# Results from PubChem BioAssay (NCI).
#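 GI50: concentration for 50% inhibition of growth. TGI: concentration producing complete growth inhibition.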
# Tests used:
# Experiment in all cases: inhibition of tumour cell growth, NCI panel, 384-well format
# MALME-3M melanoma = tested on: MALME-3M melanoma
# RXF 393 renal = tested on: RXF 393 renal
# 786-0 renal = tested on: 786-0 renal
# TK-10 renal = tested on: TK-10 renal
# SN12C renal = tested on: SN12C renal
# HT29 colon = tested on: HT29 colon
# SW-620 colon = tested on: SW-620 colon
# UACC-257 melanoma = tested on: UACC-257 melanoma
# M14 melanoma = tested on: M14 melanoma
# UACC-62 melanoma = tested on: UACC-62 melanoma
# MDA-MB-468 breast = tested on: MDA-MB-468 breast
# SK-OV-3 ovarian = tested on: SK-OV-3 ovarian
# OVCAR-4 ovarian = tested on: OVCAR-4 ovarian
# OVCAR-5 ovarian = tested on: OVCAR-5 ovarian
# NCI-H322M lung = tested on: NCI-H322M lung
# CCRF-CEM leukemia = tested on: CCRF-CEM leukemia
# NCI-H23 lung = tested on: NCI-H23 lung
# HOP-62 NSCLC = tested on: HOP-62 NSCLC
# SF-268 CNS = tested on: SF-268 CNS
# ACHN renal = tested on: ACHN renal
# OVCAR-3 ovarian = tested on: OVCAR-3 ovarian
# SNB-19 CNS = tested on: SNB-19 CNS
# PC-3 prostate = tested on: PC-3 prostate
# A549 NSCLC = tested on: A549 NSCLC
# MCF7 breast = tested on: MCF7 breast
# COLO 205 colon = tested on: COLO 205 colon
# IGROV1 ovarian = tested on: IGROV1 ovarian
# HCT-15 colon = tested on: HCT-15 colon
# NCI-H522 lung = tested on: NCI-H522 lung
# SK-MEL-5 melanoma = tested on: SK-MEL-5 melanoma
# MOLT-4 leukemia = tested on: MOLT-4 leukemia
# SK-MEL-2 melanoma = tested on: SK-MEL-2 melanoma
# K-562 leukemia = tested on: K-562 leukemia
# SR leukemia = tested on: SR leukemia
# LOX IMVI melanoma = tested on: LOX IMVI melanoma
# MDA-MB-231 breast = tested on: MDA-MB-231 breast
# SK-MEL-28 melanoma = tested on: SK-MEL-28 melanoma
# SF-295 CNS = tested on: SF-295 CNS
# T-47D breast = tested on: T-47D breast
# NCI/ADR-RES ovarian = tested on: NCI/ADR-RES ovarian
# MDA-MB-435 melanoma = tested on: MDA-MB-435 melanoma
# U251 glioblastoma = tested on: U251 glioblastoma
# NCI-H460 NSCLC = tested on: NCI-H460 NSCLC
# A498 renal = tested on: A498 renal
# SF-539 CNS = tested on: SF-539 CNS
# RPMI-8226 leukemia = tested on: RPMI-8226 leukemia
# HCC-2998 colon = tested on: HCC-2998 colon
smiles,measurement,setting,value
C[C@@H]1CN(C(=O)c2ccc(NC(=O)c3cc(O[C@H](C)c4c(Cl)ccc(F)c4Cl)c(N)nn3)cc2)C[C@H](C)N1,GI50,MALME-3M melanoma,1440 nM
same,TGI,MALME-3M melanoma,3.08 µM
same,GI50,RXF 393 renal,1740 nM
same,TGI,RXF 393 renal,3.27 µM
same,GI50,786-0 renal,1860 nM
same,TGI,786-0 renal,3.5 µM
same,GI50,TK-10 renal,3.5 µM
same,TGI,TK-10 renal,10.3 µM
same,GI50,SN12C renal,1.82 µM
same,TGI,SN12C renal,11.7 µM
same,GI50,HT29 colon,1.22 µM
same,TGI,HT29 colon,2590 nM
same,GI50,SW-620 colon,1.69 µM
same,TGI,SW-620 colon,3.48 µM
same,GI50,UACC-257 melanoma,1690 nM
same,TGI,UACC-257 melanoma,3.07 µM
same,GI50,M14 melanoma,2.47 µM
same,TGI,M14 melanoma,6.48 µM
same,GI50,UACC-62 melanoma,1.34 µM
same,TGI,UACC-62 melanoma,2890 nM
same,GI50,MDA-MB-468 breast,1900 nM
same,TGI,MDA-MB-468 breast,3.7 µM
same,GI50,SK-OV-3 ovarian,5.26 µM
same,TGI,SK-OV-3 ovarian,16.2 µM
same,GI50,OVCAR-4 ovarian,4.1 µM
same,TGI,OVCAR-4 ovarian,10.2 µM
same,GI50,OVCAR-5 ovarian,1.54 µM
same,TGI,OVCAR-5 ovarian,4.7 µM
same,GI50,NCI-H322M lung,5.08 µM
same,TGI,NCI-H322M lung,16.1 µM
same,GI50,CCRF-CEM leukemia,395 nM
same,TGI,CCRF-CEM leukemia,1010 nM
same,GI50,NCI-H23 lung,642 nM
same,TGI,NCI-H23 lung,3.76 µM
same,GI50,HOP-62 NSCLC,2.42 µM
same,TGI,HOP-62 NSCLC,7.03 µM
same,GI50,SF-268 CNS,1.31 µM
same,TGI,SF-268 CNS,3.77 µM
same,GI50,ACHN renal,3.05 µM
same,TGI,ACHN renal,11.1 µM
same,GI50,OVCAR-3 ovarian,2.75 µM
same,TGI,OVCAR-3 ovarian,7.2 µM
same,GI50,SNB-19 CNS,4.02 µM
same,TGI,SNB-19 CNS,13.5 µM
same,GI50,PC-3 prostate,2.58 µM
same,TGI,PC-3 prostate,7.16 µM
same,GI50,A549 NSCLC,1450 nM
same,TGI,A549 NSCLC,5 µM
same,GI50,MCF7 breast,845 nM
same,TGI,MCF7 breast,4.77 µM
same,GI50,COLO 205 colon,1330 nM
same,TGI,COLO 205 colon,3.94 µM
same,GI50,IGROV1 ovarian,2.36 µM
same,TGI,IGROV1 ovarian,10.2 µM
same,GI50,HCT-15 colon,2.46 µM
same,TGI,HCT-15 colon,6.88 µM
same,GI50,NCI-H522 lung,1.99 µM
same,TGI,NCI-H522 lung,7.16 µM
same,GI50,SK-MEL-5 melanoma,1530 nM
same,TGI,SK-MEL-5 melanoma,3.48 µM
same,GI50,MOLT-4 leukemia,0.181 µM
same,TGI,MOLT-4 leukemia,0.356 µM
same,GI50,SK-MEL-2 melanoma,1770 nM
same,TGI,SK-MEL-2 melanoma,4.27 µM
same,GI50,K-562 leukemia,152 nM
same,TGI,K-562 leukemia,319 nM
same,TGI,SR leukemia,10.9 nM
same,GI50,LOX IMVI melanoma,1.26 µM
same,TGI,LOX IMVI melanoma,2520 nM
same,GI50,MDA-MB-231 breast,1.74 µM
same,TGI,MDA-MB-231 breast,5.52 µM
same,GI50,SK-MEL-28 melanoma,2.82 µM
same,TGI,SK-MEL-28 melanoma,7.32 µM
same,GI50,SF-295 CNS,1.72 µM
same,TGI,SF-295 CNS,5.81 µM
same,GI50,T-47D breast,3.17 µM
same,TGI,T-47D breast,8.97 µM
same,GI50,NCI/ADR-RES ovarian,14.8 µM
same,TGI,NCI/ADR-RES ovarian,28.2 µM
same,GI50,MDA-MB-435 melanoma,1610 nM
same,TGI,MDA-MB-435 melanoma,6.93 µM
same,GI50,U251 glioblastoma,2 µM
same,TGI,U251 glioblastoma,5.25 µM
same,GI50,NCI-H460 NSCLC,1 µM
same,TGI,NCI-H460 NSCLC,3.73 µM
same,GI50,A498 renal,2.04 µM
same,TGI,A498 renal,3.88 µM
same,GI50,SF-539 CNS,2.02 µM
same,TGI,SF-539 CNS,3.99 µM
same,GI50,RPMI-8226 leukemia,0.943 µM
same,TGI,RPMI-8226 leukemia,2.49 µM
same,GI50,HCC-2998 colon,2140 nM
same,TGI,HCC-2998 colon,7.68 µM
O=C1CC(c2ccc(N3CCOCC3)cc2)(c2ccsc2)NC(=O)C1Sc1ccccc1Cl (configuration not stated),GI50,MALME-3M melanoma,> 51200 nM
same,TGI,MALME-3M melanoma,> 100 µM
same,GI50,RXF 393 renal,2580 nM
same,TGI,RXF 393 renal,7.47 µM
same,GI50,786-0 renal,2710 nM
same,TGI,786-0 renal,> 21.3 µM
same,GI50,TK-10 renal,75.9 µM
same,TGI,TK-10 renal,> 100 µM
same,GI50,SN12C renal,4.53 µM
same,TGI,SN12C renal,23.4 µM
same,GI50,HT29 colon,62.7 µM
same,TGI,HT29 colon,> 100000 nM
same,GI50,SW-620 colon,16.7 µM
same,TGI,SW-620 colon,> 51.8 µM
same,GI50,UACC-257 melanoma,> 100000 nM
same,TGI,UACC-257 melanoma,> 100 µM
same,GI50,M14 melanoma,53.1 µM
same,TGI,M14 melanoma,> 100 µM
same,GI50,UACC-62 melanoma,12.7 µM
same,TGI,UACC-62 melanoma,> 100000 nM
same,GI50,MDA-MB-468 breast,> 100000 nM
same,TGI,MDA-MB-468 breast,> 100 µM
same,GI50,SK-OV-3 ovarian,> 85.3 µM
same,TGI,SK-OV-3 ovarian,> 100 µM
same,GI50,OVCAR-4 ovarian,34 µM
same,TGI,OVCAR-4 ovarian,> 100 µM
same,GI50,OVCAR-5 ovarian,67.7 µM
same,TGI,OVCAR-5 ovarian,> 100 µM
same,GI50,NCI-H322M lung,> 100 µM
same,TGI,NCI-H322M lung,> 100 µM
same,GI50,CCRF-CEM leukemia,3390 nM
same,TGI,CCRF-CEM leukemia,> 21900 nM
same,GI50,NCI-H23 lung,> 95800 nM
same,TGI,NCI-H23 lung,> 100 µM
same,GI50,HOP-62 NSCLC,13.6 µM
same,TGI,HOP-62 NSCLC,> 100 µM
same,GI50,SF-268 CNS,51.2 µM
same,TGI,SF-268 CNS,> 100 µM
same,GI50,ACHN renal,33 µM
same,TGI,ACHN renal,98.7 µM
same,GI50,OVCAR-3 ovarian,34.2 µM
same,TGI,OVCAR-3 ovarian,> 100 µM
same,GI50,SNB-19 CNS,16.9 µM
same,TGI,SNB-19 CNS,63.8 µM
same,GI50,PC-3 prostate,43.6 µM
same,TGI,PC-3 prostate,> 100 µM
same,GI50,A549 NSCLC,> 80400 nM
same,TGI,A549 NSCLC,> 100 µM
same,GI50,MCF7 breast,> 73700 nM
same,TGI,MCF7 breast,> 100 µM
same,GI50,COLO 205 colon,> 100000 nM
same,TGI,COLO 205 colon,> 100 µM
same,GI50,IGROV1 ovarian,46.5 µM
same,TGI,IGROV1 ovarian,> 100 µM
same,GI50,HCT-15 colon,63 µM
same,TGI,HCT-15 colon,> 100 µM
same,GI50,NCI-H522 lung,6.42 µM
same,TGI,NCI-H522 lung,> 100 µM
same,GI50,SK-MEL-5 melanoma,> 100000 nM
same,TGI,SK-MEL-5 melanoma,> 100 µM
same,GI50,MOLT-4 leukemia,9.17 µM
same,TGI,MOLT-4 leukemia,22 µM
same,GI50,SK-MEL-2 melanoma,> 56100 nM
same,TGI,SK-MEL-2 melanoma,> 100 µM
same,GI50,K-562 leukemia,3970 nM
same,TGI,K-562 leukemia,> 100000 nM
same,GI50,SR leukemia,692 nM
same,TGI,SR leukemia,1740 nM
same,GI50,LOX IMVI melanoma,35.9 µM
same,TGI,LOX IMVI melanoma,> 100000 nM
same,GI50,MDA-MB-231 breast,13.9 µM
same,TGI,MDA-MB-231 breast,> 100 µM
same,GI50,SK-MEL-28 melanoma,66.7 µM
same,TGI,SK-MEL-28 melanoma,> 100 µM
same,GI50,SF-295 CNS,35.7 µM
same,TGI,SF-295 CNS,> 100 µM
same,GI50,T-47D breast,66 µM
same,TGI,T-47D breast,> 100 µM
same,GI50,NCI/ADR-RES ovarian,19.4 µM
same,TGI,NCI/ADR-RES ovarian,41.5 µM
same,GI50,MDA-MB-435 melanoma,> 100000 nM
same,TGI,MDA-MB-435 melanoma,> 100 µM
same,GI50,U251 glioblastoma,5.73 µM
same,TGI,U251 glioblastoma,65.7 µM
same,GI50,NCI-H460 NSCLC,9.07 µM
same,TGI,NCI-H460 NSCLC,98.5 µM
same,GI50,A498 renal,18.5 µM
same,TGI,A498 renal,> 88.7 µM
same,GI50,SF-539 CNS,23.3 µM
same,TGI,SF-539 CNS,> 100 µM
same,GI50,RPMI-8226 leukemia,10.5 µM
same,TGI,RPMI-8226 leukemia,41.2 µM
same,GI50,HCC-2998 colon,> 100000 nM
same,TGI,HCC-2998 colon,> 100 µM
